Measurements published in PubChem BioAssay AID1996.
Values after ≈ are worked out from the molar mass of the structure shown.

Details: buffer; pH 7.4; 200.0 µM

Question: With `CC(=O)c1ccc(-n2cc(C#N)c(=O)[nH]c2=O)cc1` as the compound, how does the solubility kinetic read?
Answer: 34.7 µg/mL (≈ 136 µM)

Question: For `O=C(NC1CCS(=O)(=O)C1)c1cccs1` (stereo unspecified), which solubility kinetic is on record?
Answer: > 36.8 µg/mL

Question: Which solubility kinetic does the source give for `CCNc1nc2cccnc2s1` here?
Answer: 24.7 µg/mL (≈ 138 µM)

Question: Which solubility kinetic does the source give for `Cc1cccc(NC(=O)C2CCN(C(=O)c3ccco3)CC2)c1C` here?
Answer: > 49 µg/mL

Question: With `COc1cccc(OCC(=O)Nc2ccncc2)c1` as the compound, how does the solubility kinetic read?
Answer: > 38.7 µg/mL

Question: With `Cc1ccc(N2C(=O)C3C4C=CC(CC4)C3C2=O)cc1[N+](=O)[O-]` (stereo unspecified) as the compound, how does the solubility kinetic read?
Answer: 23.4 µg/mL (≈ 74.9 µM)

Question: For `O=C(c1cccc(NS(=O)(=O)c2cccc(F)c2)c1)N1CCCC1`, which solubility kinetic is on record?
Answer: 51 µg/mL (≈ 146 µM)

Question: With `OC(c1ccccc1)(c1ccccc1)C1CCNCC1` as the compound, how does the solubility kinetic read?
Answer: > 40.1 µg/mL

Question: Which solubility kinetic does the source give for `COc1ccc(C2CC(=O)C(C=NCC(C)C)=C(O)C2)cc1` (stereo unspecified) here?
Answer: 40.6 µg/mL (≈ 135 µM)

Question: Which solubility kinetic does the source give for `Cc1nc2ccccc2c(=O)n1NC(=O)c1ccccc1F` here?
Answer: > 44.6 µg/mL

Question: With `COc1ccc(Cl)cc1NC(=O)CN(C)C(=O)c1cccc(S(=O)(=O)N2CCN(C)CC2)c1` as the compound, how does the solubility kinetic read?
Answer: 67.4 µg/mL (≈ 136 µM)

Question: For `Cc1onc(-c2ccccc2)c1C(=O)NC(C)c1ccccc1` (stereo unspecified), which solubility kinetic is on record?
Answer: 4.9 µg/mL (≈ 16 µM)

Question: With `Cc1c2c(n3c(nc4ccccc43)c1C#N)N(CCN(C)C)CC2` as the compound, how does the solubility kinetic read?
Answer: > 47.9 µg/mL

Question: For `Cc1[nH]n(-c2ccccc2)c(=O)c1/C=N/NC(=O)c1cccc(F)c1`, which solubility kinetic is on record?
Answer: > 50.8 µg/mL

Question: For `Cc1cccc(N2CCN(Cc3nc(C4CC4)no3)CC2)n1`, which solubility kinetic is on record?
Answer: 37.8 µg/mL (≈ 126 µM)

Question: Which solubility kinetic does the source give for `S=C(NC1CCCCC1)N1CCCCC1` here?
Answer: 26.3 µg/mL (≈ 116 µM)

Question: For `Cc1ccc(N2CC(C(=O)Nc3ccccc3N3CCCC3)CC2=O)cc1` (stereo unspecified), which solubility kinetic is on record?
Answer: 21.4 µg/mL (≈ 58.9 µM)

Question: With `O=c1[nH]cccc1-c1nc2ccccc2n1Cc1ccc(Cl)cc1` as the compound, how does the solubility kinetic read?
Answer: > 50.4 µg/mL

Question: With `COc1ccc(C(=O)Nc2ccc3ncccc3c2)cc1` as the compound, how does the solubility kinetic read?
Answer: 12.1 µg/mL (≈ 43.5 µM)

Question: With `CC(C)OC(=O)/C(=C\c1cccnc1)NC(=O)c1ccccc1` as the compound, how does the solubility kinetic read?
Answer: > 46.6 µg/mL

Question: With `COc1ccccc1OCCCC(=O)Nc1nccs1` as the compound, how does the solubility kinetic read?
Answer: 23.4 µg/mL (≈ 80 µM)

Question: For `O=C(O)CSc1nc2sc3c(c2c(=O)n1-c1ccccc1)CCC3`, which solubility kinetic is on record?
Answer: > 53.8 µg/mL

Question: For `CCCN1CCC(NC(=O)C2CCCCC2C(=O)O)CC1` (stereo unspecified), which solubility kinetic is on record?
Answer: > 44.5 µg/mL

Question: Which solubility kinetic does the source give for `CC1CCN(C(=O)COC(=O)CCC(=O)c2ccc(Cl)cc2)CC1` here?
Answer: 49.8 µg/mL (≈ 142 µM)

Question: For `O=[N+]([O-])c1ccc(O)c(CN2CCCCCC2)c1`, which solubility kinetic is on record?
Answer: > 37.5 µg/mL

Question: For `O=C(NC1CCCCC1)C(=S)N1CCOCC1`, which solubility kinetic is on record?
Answer: > 38.5 µg/mL

Question: Which solubility kinetic does the source give for `CC(NCC#Cc1ccccc1)C(O)c1ccccc1.Cl` (stereo unspecified) here?
Answer: 44.8 µg/mL

Question: With `CCOC(=O)c1c(C)[nH]c(C)c1C(=O)COC(=O)Cc1ccc(OC)c(OC)c1` as the compound, how does the solubility kinetic read?
Answer: > 60.5 µg/mL

Question: With `Cc1cccc(C(=O)N/N=C/c2ccoc2)c1` as the compound, how does the solubility kinetic read?
Answer: > 34.2 µg/mL

Question: Which solubility kinetic does the source give for `COc1ccc(CCNC(=O)COC(=O)c2cc(Cl)nc(Cl)c2)cc1` here?
Answer: 23.6 µg/mL (≈ 61.6 µM)

Question: For `CCCN(CCC)S(=O)(=O)c1ccc(C(=O)NCc2ccco2)cc1`, which solubility kinetic is on record?
Answer: 12.7 µg/mL (≈ 34.8 µM)

Question: With `CC(=O)c1c(C)[nH]c(C(=O)OCc2csc(CC(=O)Nc3ccccc3C)n2)c1C` as the compound, how does the solubility kinetic read?
Answer: 4.2 µg/mL (≈ 9.87 µM)

Question: Which solubility kinetic does the source give for `CC(=O)SC1CC(=O)N(c2c(C)cccc2C)C1=O` (stereo unspecified) here?
Answer: > 41.6 µg/mL

Question: With `CCNC(=S)Nc1ccc(Cc2ccncc2)cc1` as the compound, how does the solubility kinetic read?
Answer: 38.3 µg/mL (≈ 141 µM)

Question: With `O=C(CNC(=O)c1ccccc1Cl)NCCc1cccs1` as the compound, how does the solubility kinetic read?
Answer: > 48.4 µg/mL

Question: For `NC(=O)COc1ccc2cc(-c3ccccc3)c(=O)oc2c1`, which solubility kinetic is on record?
Answer: 3.8 µg/mL (≈ 12.9 µM)

Question: With `O=C(COC(=O)/C=C/c1ccc(Cl)cc1Cl)NCC1CCCO1` (stereo unspecified) as the compound, how does the solubility kinetic read?
Answer: 10.4 µg/mL (≈ 29 µM)

Question: With `O=C(NC(=S)NCc1cccnc1)c1ccccc1F` as the compound, how does the solubility kinetic read?
Answer: > 43.4 µg/mL

Question: With `CCn1c(Oc2ccc(F)cc2)nc2c1c(=O)n(C)c(=O)n2C` as the compound, how does the solubility kinetic read?
Answer: > 47.7 µg/mL

Question: Which solubility kinetic does the source give for `O=C(Nc1ccccc1)c1ccc(NC(=O)c2cccs2)cc1` here?
Answer: < 0.3 µg/mL

Question: For `Cc1cc2[nH]c(=O)c(=O)[nH]c2cc1S(=O)(=O)NCc1ccccc1`, which solubility kinetic is on record?
Answer: > 51.8 µg/mL

Question: Which solubility kinetic does the source give for `Cc1ccc(NS(=O)(=O)c2ccc3c(c2)oc(=O)n3C)cc1C` here?
Answer: < 0.4 µg/mL

Question: Which solubility kinetic does the source give for `Cc1ccc([N+](=O)[O-])c(NC(=O)COC(=O)C2CC3CCCC(C2)C3=O)c1C` (stereo unspecified) here?
Answer: > 58.3 µg/mL

Question: For `CC(C)CN1CCC(CN(C)Cc2nc(-c3cnccn3)no2)CC1`, which solubility kinetic is on record?
Answer: 45.2 µg/mL (≈ 131 µM)

Question: For `Cc1cc(NC(=O)CN2C(=O)NC(C)(c3ccccc3Cl)C2=O)no1` (stereo unspecified), which solubility kinetic is on record?
Answer: 28 µg/mL (≈ 77.2 µM)

Question: For `Cl.Fc1ccc(Nc2ncnc3ccccc23)cc1`, which solubility kinetic is on record?
Answer: 36.8 µg/mL

Question: Which solubility kinetic does the source give for `O=C1CSC(c2ccc([N+](=O)[O-])cc2)N1c1ccc(O)cc1` (stereo unspecified) here?
Answer: 46.4 µg/mL (≈ 147 µM)

Question: Which solubility kinetic does the source give for `O=C(OCC(=O)N1CCCCCC1)c1cccnc1Cl` here?
Answer: > 44.5 µg/mL

Question: Which solubility kinetic does the source give for `COC(=O)c1c(C)[nH]c(C(=O)OCC(=O)c2ccc(C)s2)c1C` here?
Answer: 5.7 µg/mL (≈ 17 µM)

Question: Which solubility kinetic does the source give for `COc1ccc(C(=O)c2ccc(-c3ccc(OC)cc3)nc2)cc1` here?
Answer: < 0.7 µg/mL

Question: For `CN1CCN(C(=O)CCC(=O)O)CC1`, which solubility kinetic is on record?
Answer: 26.5 µg/mL (≈ 132 µM)

Question: With `O=C(O)C1C2C=CC(C2)C1C(=O)Nc1cccc(Cl)c1` (stereo unspecified) as the compound, how does the solubility kinetic read?
Answer: 42.8 µg/mL (≈ 147 µM)

Question: For `CC1CCCC(C)N1C(=O)COc1ccc([N+](=O)[O-])cc1Cl` (stereo unspecified), which solubility kinetic is on record?
Answer: > 49 µg/mL

Question: With `CC(C)(C)S(=O)(=O)c1cnc(N2CCCCC2)nc1N` as the compound, how does the solubility kinetic read?
Answer: > 44.8 µg/mL

Question: Which solubility kinetic does the source give for `Cc1ccc(NCc2ccc([N+](=O)[O-])s2)cc1` here?
Answer: 13.7 µg/mL (≈ 55.2 µM)

Question: Which solubility kinetic does the source give for `O=C(COC(=O)C1=COCCO1)Nc1cc(Cl)c(Cl)cc1Cl` here?
Answer: 5.3 µg/mL (≈ 14.5 µM)

Question: With `C=CCOn1c(=O)c(-c2ccc(C)cc2)[n+]([O-])c2ccccc21` as the compound, how does the solubility kinetic read?
Answer: 5.7 µg/mL (≈ 18.5 µM)

Question: For `Cc1cccc(C(=O)NCC(=O)N2CCCC2)c1`, which solubility kinetic is on record?
Answer: > 36.9 µg/mL

Question: With `CCC1(CC)N=C(c2ccccc2)C(=S)N1` as the compound, how does the solubility kinetic read?
Answer: > 34.9 µg/mL

Question: For `Nc1nc(NCc2ccc(Cl)cc2)nc(NCCO)c1[N+](=O)[O-]`, which solubility kinetic is on record?
Answer: 45.9 µg/mL (≈ 135 µM)

Question: Which solubility kinetic does the source give for `CCC(=O)NC(c1ccccc1)c1c(OC(C)=O)ccc2ccccc12` (stereo unspecified) here?
Answer: > 52.1 µg/mL
